Assay results taken from PMC2772868 (Biochemistry, 2009).

What was measured:
[1] = target: LacI (lactose repressor protein) (Escherichia coli, UniProt P03023); assay type: binding
LacI wild-type = LacI wild-type (Escherichia coli, UniProt P03023 1-360); assay: filter binding
Chain of LacI wild-type (P03023 whole entry): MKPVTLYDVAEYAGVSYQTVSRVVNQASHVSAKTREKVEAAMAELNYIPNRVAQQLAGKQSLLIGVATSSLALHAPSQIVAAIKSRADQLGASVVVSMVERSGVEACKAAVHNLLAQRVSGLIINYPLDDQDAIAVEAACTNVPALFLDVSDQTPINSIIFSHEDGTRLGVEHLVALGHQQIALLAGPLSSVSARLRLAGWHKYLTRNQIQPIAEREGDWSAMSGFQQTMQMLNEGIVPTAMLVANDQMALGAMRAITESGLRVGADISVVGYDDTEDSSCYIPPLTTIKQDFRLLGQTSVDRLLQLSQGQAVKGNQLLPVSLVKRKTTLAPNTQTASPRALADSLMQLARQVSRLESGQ

Chain of LacI (lactose repressor protein) (P03023 whole entry): as above

CC(C)S[C@@H]1O[C@H](CO)[C@H](O)[C@H](O)[C@H]1O [IPTG, isopropyl-β-D-thiogalactoside]
EC50 [1]: 2200 nM

B1: 40-bp natural lac operator (dsDNA)
DNA 1: TGTTGTGTGGAATTGTGAGCGGATAACAATTTCACACAGG
DNA 2: CCTGTGTGAAATTGTTATCCGCTCACAATTCCACACAACA
Kd (LacI wild-type): 0.022 ± 0.002 nM
